From article PMC13237026, “Structural basis for a central permeation pathway in the P2X1 receptor” (Cell Discovery, 2026) come the findings set out here.

The target in data set [1] is T1, mP2X1 receptor (Mus musculus, UniProt P51576).
T1 sequence (P51576 1-399): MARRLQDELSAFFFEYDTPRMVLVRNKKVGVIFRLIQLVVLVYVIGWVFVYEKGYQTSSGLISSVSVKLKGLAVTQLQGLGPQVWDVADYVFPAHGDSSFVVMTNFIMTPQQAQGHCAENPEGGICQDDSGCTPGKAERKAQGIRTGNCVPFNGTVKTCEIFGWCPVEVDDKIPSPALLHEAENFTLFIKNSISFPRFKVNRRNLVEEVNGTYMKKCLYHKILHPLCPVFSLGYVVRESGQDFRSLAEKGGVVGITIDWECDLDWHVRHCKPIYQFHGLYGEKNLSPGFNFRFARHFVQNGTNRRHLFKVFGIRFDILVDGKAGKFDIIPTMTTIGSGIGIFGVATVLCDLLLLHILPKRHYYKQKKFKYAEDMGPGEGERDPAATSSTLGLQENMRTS
In words: whole-cell patch clamp, HEK293, ATP-evoked mixed-cation current. Format: cell-based. Set-up: gene P2rx1; full-length wild type; electrophysiology: HEK293, pCDNA3.1, labelled with mCherry.

Data set [2] addresses T1, mP2X1 receptor. In words: cryo-EM structure of the complex. Format: binding. Set-up: gene P2rx1; full-length wild type; cryo-EM: Sf9, C-terminal His and Flag tags after HRV-3C site, homotrimer in LMNG; electrophysiology: HEK293, pCDNA3.1, labelled with mCherry.
Data set [3] concerns the target T2, mP2X1 receptor (Mus musculus, UniProt P51576, K140A).
T2 construct: gene P2rx1
In words: cell-based.

Data set [4] concerns the target T3, mP2X1 receptor (Mus musculus, UniProt P51576, R139A).
T3 construct: gene P2rx1
The experiment in a line: cell-based.

Data set [5] concerns the target T4, mP2X1 receptor (Mus musculus, UniProt P51576, K190A).
T4 construct: gene P2rx1
In words: cell-based.

The target in data set [6] is T1, mP2X1 receptor. The experiment in a line: cell-based. Also noted: gene P2rx1.
Data set [7] concerns the molecule itself. The experiment in a line: cryo-EM structure; single-particle cryo-EM of purified mP2X1 in LMNG (20 mM HEPES pH 7.0, 150 mM NaCl, 0.002% LMNG), 4.0 mg/mL; without added Ca2+, with 1, 5 or 10 mM Ca2+, or with 5 mM Ca2+ and 10 uM BTFA.

T2 sequence (P51576 whole entry K140A): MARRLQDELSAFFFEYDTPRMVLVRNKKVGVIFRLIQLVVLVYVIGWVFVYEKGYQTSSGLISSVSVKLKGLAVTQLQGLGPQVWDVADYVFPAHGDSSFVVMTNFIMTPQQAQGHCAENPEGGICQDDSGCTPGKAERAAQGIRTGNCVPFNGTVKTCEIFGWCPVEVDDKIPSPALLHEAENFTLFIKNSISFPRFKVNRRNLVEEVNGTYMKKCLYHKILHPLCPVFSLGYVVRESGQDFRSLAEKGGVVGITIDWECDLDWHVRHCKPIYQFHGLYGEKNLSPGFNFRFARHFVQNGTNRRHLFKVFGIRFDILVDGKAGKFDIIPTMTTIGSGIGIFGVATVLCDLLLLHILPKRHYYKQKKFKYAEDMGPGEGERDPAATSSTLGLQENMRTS
T3 sequence (P51576 whole entry R139A): as the sequence (P51576 whole entry K140A) above, with R139A, A140K counted along it
T4 sequence (P51576 whole entry K190A): as the sequence (P51576 whole entry K140A) above, with A140K, K190A counted along it

Consider `Nc1cc(C(F)(F)F)cc(C(F)(F)F)c1` [BTFA, 3,5-bis(trifluoromethyl)aniline], for which the IC50 at mP2X1 receptor [1] amounted to 4.3 µM. For the same molecule, at mP2X1 receptor [2] (10 μM BTFA, 5 mM Ca2+, allosteric, top of central vestibule), the “cryo-EM structure of the complex” value is given as “we determined the cryo-EM structure of the P2X1–BTFA complex”.
In the case of `Nc1ncnc2c1ncn2[C@@H]1O[C@H](COP(=O)(O)OP(=O)(O)OP(=O)(O)O)[C@@H](O)[C@H]1O` [ATP], the EC50 at mP2X1 receptor [3] is 10.3 µM; at mP2X1 receptor [4], 5.29 µM; at mP2X1 receptor [5], 6.74 µM; on mP2X1 receptor [6], 0.829 µM. Further, the “cryo-EM structure of the complex” value on mP2X1 receptor [2] (co-purified ATP, no exogenous ATP or Ca2+ added, three ATP per trimer, orthosteric site) is reported as “EM maps revealed the presence of three clear ATP molecules within the structures”.

B1: full-length, wild-type mouse P2X1 (mP2X1) receptor (receptor, UniProt P51576 1-399, looked up)
chain: MARRLQDELSAFFFEYDTPRMVLVRNKKVGVIFRLIQLVVLVYVIGWVFVYEKGYQTSSGLISSVSVKLKGLAVTQLQGLGPQVWDVADYVFPAHGDSSFVVMTNFIMTPQQAQGHCAENPEGGICQDDSGCTPGKAERKAQGIRTGNCVPFNGTVKTCEIFGWCPVEVDDKIPSPALLHEAENFTLFIKNSISFPRFKVNRRNLVEEVNGTYMKKCLYHKILHPLCPVFSLGYVVRESGQDFRSLAEKGGVVGITIDWECDLDWHVRHCKPIYQFHGLYGEKNLSPGFNFRFARHFVQNGTNRRHLFKVFGIRFDILVDGKAGKFDIIPTMTTIGSGIGIFGVATVLCDLLLLHILPKRHYYKQKKFKYAEDMGPGEGERDPAATSSTLGLQENMRTS
notes: mouse P2X1 receptor (P2RX1), wild type, full length, cloned from mouse olfactory cortex cDNA; His tag and Flag tag at the C-terminus are connected by an HRV-3C protease recognition site; no cleavage is described; N-linked glycosylation is observed; also called P2RX1; P2XR1; not shown: Flag (1x), C-terminal, kept
Take B1: the “stoichiometry N” value in data set [7] was determined as 3.
